Values quoted from earlier work, collected in US8293868B2 (priority 2004, dated 2012).

System: α-subunit of the P. americana high conductance calcium-activated potassium channel (pSlo)

Substance: charybdotoxin
- block of pSlo channels previously reported: about 80%
